According to patent publication US12582667B2, “Compositions and methods to treat metastatic gastrointestinal cancer” (The Rockefeller University, priority 2019, dated 2026):

Experiments:
LS174T cells [1] = assay: Oral gavage of 3-MPA, LS174T liver colonization model; format: in vivo, mouse; conditions: oral gavage 200 mg/kg prior to cell injection and on day one
Description: (§1) All animal work was conducted in accordance with a protocol approved by the Institutional Animal Care and Use Committee (IACUC) at The Rockefeller University and Memorial Sloan Kettering Cancer Center. […] For functional studies of PCK1, colorectal cancer cells (SW480 or LS174T) that had been stably transduced with a luciferase reporter (Ponomarev et al., 2004) were subjected to portal circulation injection in NSG mice; after two minutes, a splenectomy was performed. For functional and pharmacology studies of DHODH, colorectal cancer cells (Lvm3b) that had been stably transduced with a luciferase reporter were subjected to portal circulation injection in athymic nude mice; after two minutes, a splenectomy was performed. Mice were imaged weekly; experiments were terminated when the luciferase signal had saturated or the mice were too ill, whichever occurred first.
Chow was removed from cages four hours prior to injection of LS174T cells. Gavage with either 3-MPA (200 mg/kg in aqueous solution) or placebo was performed one hour prior to the injection of LS174T cells. 1×10^6 LS174T cells were injected into the portal systemic circulation as described in the Animals section above. Chow was returned to cages after injection. On day 1, chow was removed from cages; 3-MPA or placebo was administered via gavage four hours post-chow removal. […]

LS174T cells [2] = assay: 3-Mercaptopicolinic acid in vitro growth assay; format: cell-based, human; conditions: 24-hour exposure to 1 mM 3 MPA in media, terminated on day 5
Description: 3-Mercaptopicolinic Acid In Vitro Growth Assay
LS174T cells were seeded in 6-well plates. On day 1, the media was replaced with either control media or media supplemented with 1 mM 3 MPA. On day 2, all the media was replaced with control media. The experiment was terminated on day 5.
2×10^4 LS174T cells were seeded in triplicate. On day 1, the media was replaced with either control media or media supplemented with 1 mM 3 MPA. On day 2, all the media was replaced with control media. The experiment was terminated on day 5.

LS174T cells [3] = assay: Subcutaneous tumor growth of 3-MPA pre-treated LS174T cells; format: in vivo, mouse; conditions: pre-treatment of LS174T cells with 3-MPA
CRC cells [4] = assay: Liver colonization after portal circulation injection of 3-MPA pre-treated CRC cells; format: in vivo, mouse; conditions: cells pre-treated in vitro for 24 hours, then portal circulation injection; p=0.01
Description: as §1
Due to the strong reduction in mCRC liver colonization observed upon PCK1 depletion, it was hypothesized that PCK1 inhibition may represent a potential therapeutic strategy for impairing CRC metastatic progression. In vivo proof-of-principle experiments were performed in two independent CRC cell lines with a PCK1-inhibitor, 3-mercaptopicolinic acid (3-MPA) (N. W. DiTullio, et al. Biochem J 138, 387-394 (1974)). […]

Lvm3b cells [5] = conditions: K. Bracht, et al. Br J Cancer 103, 340-346 (2010); cited from earlier work
CRC cells [6] = assay: In vitro hypoxia cell growth assay with leflunomide; format: cell-based, human; conditions: for impairment of proliferation, hypoxia versus normoxia: hypoxia compared with normoxia
Description: In Vitro Hypoxia Cell Growth Assays
Lvm3b cells or LS174T cells were grown under normoxia for 24 hours followed by incubation for 5 days under 0.5% oxygen and then counted using the Sceptor 2.0 automated Cell Counter (Millipore).
Dihydroorotate Dehydrogenase (DHODH) is a key enzyme in the metabolic pathway that […] dihydroorotate to orotate, which is ultimately converted to the pyrimidine nucleotides UTP and CTP. To further confirm that pyrimidine biosynthesis promotes CRC hypoxic growth, CRC growth upon DHODH inhibition was assessed.

Lvm3b cells [7] = assay: Lvm3b liver metastatic colonization in athymic nude mice; format: in vivo, mouse
Description: FIGS. 3A and 3B are a set of diagrams showing the effects of the DHODH inhibitor in inhibiting liver metastatic colonization. […] The mice were imaged every week. Firefly luciferase bioluminescent images are shown (p<0.0001, Student's t-test).
as §1
Chow was removed from cages four hours prior to injection of LS174T cells. Gavage with either 3-MPA (200 mg/kg in aqueous solution) or placebo was performed one hour prior to the injection of LS174T cells. 1×10^6 LS174T cells were injected into the portal systemic circulation as described in the Animals section above. Chow was returned to cages after injection. On day 1, chow was removed from cages; 3-MPA or placebo was administered via gavage four hours post-chow removal. Chow was returned to cages four hours after drug administration. Mice were imaged bi-weekly. […] An equivalent volume of DMSO was intraperitoneally injected every day to the control cohort.
To directly test this, highly metastatic LVM3b CRC cells of DHODH were depleted.

[8] = test system: two distinct CRC populations; assay: Primary tumor growth of CRC populations under leflunomide; format: in vivo; conditions: leflunomide treatment
HS746T cells = assay: HS746T subcutaneous tumor growth in NSG mice; format: in vivo, mouse; conditions: uridine administration, HS746T tumor (FIG. 4C)
Description: MPK: mg/kg body weight of mouse. Tumor size was measured by a digital caliper, and tumor volume was calculated as volume=[…].
Cg-Prkdc^scid Il2rg^tm1Wjl/SzJ (Nod-Scid-Gamma; NSG) mice (n=4 per each cohort).

CRC cells [9] = assay: Uridine rescue of hypoxic growth of PCK1 depleted CRC cells; format: cell-based, human; conditions: uridine supplementation, hypoxia
Description: In Vitro Hypoxia Cell Growth Assays Lvm3b cells or LS174T cells were grown under normoxia for 24 hours followed by incubation for 5 days under 0.5% oxygen and then counted using the Sceptor 2.0 automated Cell Counter (Millipore). The above findings reveal that liver metastatic CRC cells enhance pyrimidine levels and that PCK1 drives pyrimidine nucleotide levels under hypoxia. […] To directly test this, whether the growth defect of PCK1 depletion upon hypoxia could be rescued by the pyrimidine nucleoside uridine was determined. […] The results reveal PCK1 induction to be a mechanism employed by CRC cells to enhance pyrimidine nucleotide levels under hypoxia to promote growth.

GAS HI tumor = assay: GAS HI patient-derived tumor growth in athymic nude mice; format: in vivo, mouse; conditions: uridine administration, patient-derived tumor (FIG. 5B; text says FIGS. 5A and 5B)
Solubility of β-GPA = format: physicochemical

With `O=C(O)c1ncccc1S` [3-MPA, 3-mercaptopicolinic acid] the “colorectal cancer liver colonization” value (LS174T cells [1]) was “decreased colorectal cancer liver colonization”, the “cell growth in vitro” value (LS174T cells [2]) was “did not alter cell proliferation in vitro” and the “cell growth in vitro” value (LS174T cells [2]; listed as 3 MPA) was “does not alter”. For the same compound, the subcutaneous tumor growth (LS174T cells [3]) was “did not, however, alter subcutaneous tumor growth” and the “mCRC liver colonization in vivo” value (CRC cells [4]) was “significantly reduced”.

In the case of `O=c1[nH]cc(F)c(=O)[nH]1` [5-FU, 5-fluorouracil], the “resistance of cells to the drug” value (Lvm3b cells [5]) is given as “highly resistant”.

With `Cc1oncc1C(=O)Nc1ccc(C(F)(F)F)cc1` [leflunomide] the “CRC growth in the context of hypoxia” value (CRC cells [6]; hypoxia (0.5% oxygen)) was “significantly impaired”, the “impairment of proliferation, hypoxia versus normoxia” value (CRC cells [6]) was “impaired proliferation significantly more in the context of hypoxia than under normoxia” and the “impairment of proliferation, hypoxia versus normoxia” value (CRC cells [6]; listed as Leflunomide) was “more significant under hypoxia than normoxia”. For the same compound, the “reduction in CRC liver metastatic colonization” value (Lvm3b cells [7]; 7.5 mg/kg body weight intraperitoneally every day, athymic nude mice, versus DMSO) was roughly 90 fold, the “liver metastatic colonization of Lvm3b cells (luciferase bioluminescence)” value (Lvm3b cells [7]; 7.5 mg/kg from day 1, n=4, p<0.0001, Student's t-test) was “inhibited liver metastatic colonization” and the “survival (Kaplan-Meier)” value (Lvm3b cells [7]; 7.5 mg/kg, versus control mice, p=0.006) was “significantly longer survival”. The primary tumor growth [8] was “only modestly impacted”.

For `O=c1ccn([C@@H]2O[C@H](CO)[C@@H](O)[C@H]2O)c(=O)[nH]1` [uridine], the “rescue of leflunomide-impaired growth upon hypoxia” value (CRC cells [6]; uridine supplementation, hypoxia, leflunomide treatment) was “rescued”, the “rescue of leflunomide-induced tumor growth reduction” value (HS746T cells) was “rescued” and the “rescue of hypoxic growth defect upon PCK1 depletion” value (CRC cells [9]) was “rescued the hypoxic growth defect”. The “rescue of leflunomide induced tumor growth suppression” value (GAS HI tumor) was “rescued”.

For `N=C(N)NCCC(=O)O` [β-GPA, beta-guanidinopropionic acid], the “solubility in organic solvents” value (Solubility of β-GPA; organic solvents) was “low solubility” and the solubility (Solubility of β-GPA; water) was greater than 50 mg/mL.
